The assay concerns the target Dipeptidyl peptidase 4 (Homo sapiens, UniProt P27487). Put plainly: Inhibition of DPP4.

The results in this text go back to ChEMBL document CHEMBL1909529, “Molecular dynamics simulations and MM/GBSA methods to investigate binding mechanisms of aminomethylpyrimidine inhibitors with DPP-IV” (Bioorg Med Chem Lett, 2011).

As a reminder, the IC50 is the concentration that gives 50% inhibition.

Chain of Dipeptidyl peptidase 4 (P27487 whole entry): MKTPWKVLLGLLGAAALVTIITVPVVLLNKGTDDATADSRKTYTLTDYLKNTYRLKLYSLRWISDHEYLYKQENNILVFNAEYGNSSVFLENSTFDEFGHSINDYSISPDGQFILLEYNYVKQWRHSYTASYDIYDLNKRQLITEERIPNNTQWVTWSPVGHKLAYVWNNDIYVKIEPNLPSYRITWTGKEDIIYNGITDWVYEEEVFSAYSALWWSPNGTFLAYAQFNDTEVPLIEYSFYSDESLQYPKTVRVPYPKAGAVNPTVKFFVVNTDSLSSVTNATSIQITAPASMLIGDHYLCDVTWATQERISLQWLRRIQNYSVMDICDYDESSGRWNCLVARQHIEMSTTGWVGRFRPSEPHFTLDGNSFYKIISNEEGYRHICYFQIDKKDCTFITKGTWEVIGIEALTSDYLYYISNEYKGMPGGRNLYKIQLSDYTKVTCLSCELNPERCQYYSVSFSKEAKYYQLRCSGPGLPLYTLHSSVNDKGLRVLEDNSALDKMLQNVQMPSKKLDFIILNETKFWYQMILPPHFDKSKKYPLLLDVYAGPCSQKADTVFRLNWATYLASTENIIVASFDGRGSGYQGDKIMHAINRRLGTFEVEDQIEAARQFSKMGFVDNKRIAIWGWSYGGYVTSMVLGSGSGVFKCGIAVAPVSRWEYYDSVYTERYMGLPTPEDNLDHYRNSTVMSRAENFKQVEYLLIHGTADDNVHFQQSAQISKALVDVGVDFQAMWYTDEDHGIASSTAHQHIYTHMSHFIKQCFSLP

In the case of `NCc1c(N)nc(-c2cc(F)cc(F)c2)nc1-c1ccc(Cl)cc1Cl`, the IC50 is 3 nM.
